Source: ChEMBL document CHEMBL1130371, “3-Substituted-4-hydroxy-7-chromanylacetic acid derivatives as antagonists of the leukotriene B4 (LTB4) receptor” (Bioorg Med Chem Lett, 1997)

Assays:
Leukotriene B4 receptor = Leukotriene B4 receptor (Homo sapiens, UniProt Q9NPC1+Q15722); assay: Inhibition of LTB4 receptor induced chemotaxis of isolated human neutrophils; assay type: functional
[1] = target: Leukotriene B4 receptor (Cavia porcellus); assay: Inhibition of leukotriene B4 (LTB4) binding to guinea pig spleen
Homo sapiens [2] = organism: Homo sapiens; assay: Antagonistic activity was evaluated against LT B4 on human neutrophils; assay type: functional
Homo sapiens [3] = organism: Homo sapiens; assay: Antagonistic activity was evaluated against LT D4 on human neutrophils; assay type: functional
Homo sapiens [4] = organism: Homo sapiens; assay: Compound was evaluated for the inhibition of LTB4 receptor -induced chemotaxis of isolated human neutrophils; IA means inactive; assay type: functional
[5] = test system: Leukotriene B4 receptor (Cavia porcellus); assay: Compound was evaluated for the inhibition of Leukotriene B4 (LTB4) receptor binding to guinea pig spleen derived receptor (GPS); IA means inactive

| SMILES | IC50 (Leukotriene B4 receptor) [µM] | IC50 [1] [µM] | also measured |
| --- | --- | --- | --- |
| O=C(O)C1(c2ccc3c(c2)OC[C@H](CCc2ccccc2)[C@H]3O)CCCC1 | 0.3 | 0.49 | – |
| O=C(O)C1(c2ccc3c(c2)OC[C@H](C(c2ccccc2)c2ccccc2)[C@H]3O)CCCC1 | 10 | 5.4 | – |
| O=C(O)C1(c2ccc3c(c2)OC[C@H](Cc2ccccc2)[C@H]3O)CCCC1 (stereo in doubt; 12) | 0.078 | 0.42 | – |
| O=C(O)C1(c2ccc3c(c2)OC[C@H](Cc2ccc4ccccc4n2)[C@H]3O)CCCC1 | > 50 | 8.8 | – |
| O=C(O)C1(c2ccc3c(c2)OC[C@H](CCc2ccc(-c4ccccc4)cc2)[C@H]3O)CCCC1 | 5.8 | 3.2 | – |
| O=C(O)C1(c2ccc3c(c2)OC[C@H](Cc2cccs2)[C@H]3O)CCCC1 | 0.33 | 0.65 | – |
| CC(C)(C(=O)O)c1ccc2c(c1)OC[C@H](Cc1ccc(F)cc1F)[C@H]2O | 6.2 | 8 | – |
| O=C(O)C1(c2ccc3c(c2)OC[C@H](Cc2ccccc2)[C@H]3O)CCCCC1 (stereo in doubt; 16) | 0.17 | 0.25 | – |
| O=C(O)C1(c2ccc3c(c2)OC[C@H](Cc2ccccc2)[C@H]3O)CCCC1 (stereo in doubt) | 1.1 | 3.4 | – |
| O=C(O)C1(c2ccc3c(c2)OC[C@H](Cc2ccc(C(F)(F)F)cc2)[C@H]3O)CCCC1 | 6 | 12 | – |
| O=C(O)C1(c2ccc3c(c2)OC[C@H](Cc2ccccc2)[C@H]3O)CCCC1 (stereo in doubt; 11) | 0.16 | 0.32 | – |
| CC(C)(C(=O)O)c1ccc2c(c1)OC[C@H](Cc1ccccc1)C2 | 25 | 17 | – |
| O=C(O)C1(c2ccc3c(c2)OC[C@H](Cc2ccc(F)cc2F)[C@H]3O)CCCC1 | 1 | 2 | – |
| CC(C)(C(=O)O)c1ccc2c(c1)OC[C@H](CC1CCCCC1)[C@H]2O | 20 | 34 | – |
| O=C(O)C1(c2ccc3c(c2)OC[C@H](Cc2ccccc2)[C@H]3O)CCCCC1 (stereo in doubt; 14) | 0.38 | 0.2 | – |
| CC(C)(C(=O)O)c1ccc2c(c1)OC[C@H](Cc1ccccn1)[C@H]2O | 2.6 | 8 | – |
| O=C(O)C1(c2ccc3c(c2)OC[C@H](Cc2ccccc2)[C@H]3O)CCCC1 (stereo in doubt; 13) | 0.098 | 0.29 | – |
| CC(C(=O)O)c1ccc2c(c1)[C@H](O)[C@@H](Cc1ccccc1)CO2 (stereo partly drawn) | – | – | IC50 (Homo sapiens [4]): Not Active; IC50 [5]: Not Active |
| O=C(O)C1(c2ccc3c(c2)OC[C@H](CCCc2ccccc2)[C@H]3O)CCCC1 | 4.2 | 2.7 | – |
| O=C(O)C1(c2ccc3c(c2)OC[C@H](Sc2ccccc2)[C@H]3O)CCCC1 | 0.5 | 0.56 | – |
| O=C(O)C1(c2ccc3c(c2)OC[C@H](Cc2ccccc2)[C@H]3O)CCCCC1 (stereo in doubt; 15) | 0.23 | 0.24 | – |
| O[C@H]1c2ccc(C3(C4N=NN=N4)CCCC3)cc2OC[C@@H]1C(c1ccccc1)C1CCCCC1 (stereo partly drawn) | 1.5 | 0.35 | – |

Continued, in another order:

| IC50 (Leukotriene B4 receptor) [µM] | IC50 [1] [µM] | SMILES | also measured |
| --- | --- | --- | --- |
| > 50 | 100 | O[C@H]1c2ccccc2OC[C@@H]1Cc1ccccc1 | – |
| 5.7 | 2.3 | CC(C)(C(=O)O)c1ccc2c(c1)OC[C@H](Cc1ccccc1)[C@H]2O (stereo in doubt; 7) | – |
| 12.5 | 40 | CC(C)(C(=O)O)c1ccc2c(c1)OC[C@H](Cc1ccccc1)[C@H]2O (stereo in doubt) | – |
| 18.5 | 12 | COc1ccc(C[C@H]2COc3cc(C(C)C(=O)O)ccc3[C@@H]2O)cc1 (stereo partly drawn) | – |
| > 100 | 20 | O=C(O)c1ccc2c(c1)OC[C@H](Cc1ccccc1)[C@H]2O | – |
| > 50 | > 100 | OCCc1ccc2c(c1)OC[C@H](Cc1ccccc1)[C@H]2O | – |
| 14 | 2.7 | O=C(O)C1(c2ccc3c(c2)OC[C@H](Cc2ccccc2)[C@H]3O)CCC1 | – |
| 5.4 | 4 | CC(C)(C(=O)O)c1ccc2c(c1)OC[C@H](Cc1ccc(Cl)cc1)[C@H]2O | – |
| 9.4 | 6 | CC(C)(C(=O)O)c1ccc2c(c1)OC[C@H](Cc1cccc(F)c1)[C@H]2O | – |
| 12.2 | 53 | COc1cccc(C[C@H]2COc3cc(C(C)C(=O)O)ccc3[C@@H]2O)c1 (stereo partly drawn) | – |
| 16 | 12 | O=C(O)CCc1ccc2c(c1)OC[C@H](Cc1ccccc1)[C@H]2O | – |
| 1.5 | > 100 | CNC(=O)C(C)(C)c1ccc2c(c1)OC[C@H](Cc1ccccc1)[C@H]2O | – |
| > 50 | > 100 | OCc1ccc2c(c1)OC[C@H](Cc1ccccc1)[C@H]2O | – |
| 12 | 25 | O=C(O)Cc1ccc2c(c1)OC[C@H](Cc1ccccc1)[C@H]2O (stereo in doubt; 4) | – |
| 16.4 | 13 | CC(C(=O)O)c1ccc2c(c1)OC[C@H](Cc1ccccc1)[C@H]2O (stereo partly drawn) | IC50 (Homo sapiens [2]): 0.79 µM; IC50 (Homo sapiens [3]): > 100 µM |
| 34 | 30 | O=C(O)Cc1ccc2c(c1)OC[C@H](Cc1ccccc1)[C@H]2O (stereo in doubt; 5) | – |
| 7.2 | 100 | CC(C)c1ccc2c(c1)OC[C@H](Cc1ccccc1)[C@H]2O | – |
| 3.4 | 1.3 | CC(C)(C(=O)O)c1ccc2c(c1)OC[C@H](Cc1ccccc1)[C@H]2O (stereo in doubt; 8) | – |
| 0.17 | 0.29 | CCC(CC)(C(=O)O)c1ccc2c(c1)OC[C@H](Cc1ccccc1)[C@H]2O | – |
| 2.4 | 1.2 | CC(C)(C(=O)O)c1ccc2c(c1)OC[C@H](Cc1ccccc1)[C@H]2O (stereo in doubt; 6) | – |
| 1.7 | 40 | CC(C)(C(=O)N1CCCC1)c1ccc2c(c1)OC[C@H](Cc1ccccc1)[C@H]2O | – |
